Data taken from patent US4336375A, “Cephalosporanic acid derivatives” (American Cyanamid Company, priority 1980, dated 1982).
In brackets after ≈: the same amount, converted by molar mass. Read-outs that look alike come from different tables or passages of the source.

What was measured:
Format in all cases: cell-based
[1] = test system: Escherichia coli ESS22-31; test: In vitro MIC, agar dilution, Escherichia coli ESS22-31; settings: read-out: Minimal Inhibitory Concentration
Method: (§1) The in vitro activity of representative compounds of the present invention are given in the following Table I in terms of minimal inhibitory concentration. The test used was the standard agar dilution test using a Steers multiple inocula replicator and incubating at 35° C. for 18 hours in conventional nutrient agar.

[2] = test system: Klebsiella pneumoniae MA75-1; test: In vitro MIC, agar dilution, Klebsiella pneumoniae MA75-1; settings: MA751; Klebsiella pneumoniae MA75-1; agar dilution, 35° C., 18 hours, nutrient agar; read-out: Minimal Inhibitory Concentration
Method: as §1

[3] = test system: Pseudomonas aeruginosa G236; test: In vitro MIC, agar dilution, Pseudomonas aeruginosa G236; settings: Pseudomonas aeruginosa G236; agar dilution, 35° C., 18 hours, nutrient agar; read-out: Minimal Inhibitory Concentration
Method: as §1

Serratia marcens K77-1 = test: In vitro MIC, agar dilution, Serratia marcens K77-1; settings: K771; Serratia marcens K77-1; agar dilution, 35° C., 18 hours, nutrient agar; read-out: Minimal Inhibitory Concentration
Method: as §1

Escherichia coli OSU75-1 = test: In vitro MIC, agar dilution, Escherichia coli OSU75-1; settings: OSU751, 35° C., 18 hours, nutrient agar, read-out: Minimal Inhibitory Concentration
Method: as §1

[4] = test system: Pseudomonas aeruginosa UCS 76-13; test: In vitro MIC, agar dilution, Pseudomonas aeruginosa UCS 76-13; settings: UCS7613; Pseudomonas aeruginosa UCS 76-13; agar dilution, 35° C., 18 hours, nutrient agar; read-out: Minimal Inhibitory Concentration
Method: as §1

[5] = test system: Klebsiella pneumoniae W75-4; test: In vitro MIC, agar dilution, Klebsiella pneumoniae W75-4; settings: W754; Klebsiella pneumoniae W75-4; agar dilution, 35° C., 18 hours, nutrient agar; read-out: Minimal Inhibitory Concentration
Method: as §1

Serratia marcens QHC77-2 = test: In vitro MIC, agar dilution, Serratia marcens QHC77-2; settings: QHC772; Serratia marcens QHC77-2; agar dilution, 35° C., 18 hours, nutrient agar; read-out: Minimal Inhibitory Concentration
Method: as §1

Escherichia coli W75-1 = test: In vitro MIC, agar dilution, Escherichia coli W75-1; settings: W751, 35° C., 18 hours, nutrient agar, read-out: Minimal Inhibitory Concentration
Method: as §1

[6] = test system: Enterobacter cloacae OSU75-2; test: In vitro MIC, agar dilution, Enterobacter cloacae OSU75-2; settings: OSU752; Enterobacter cloacae OSU75-2; agar dilution, 35° C., 18 hours, nutrient agar; read-out: Minimal Inhibitory Concentration
Method: as §1

[7] = test system: Pseudomonas aeruginosa PD05141; test: In vitro MIC, agar dilution, Pseudomonas aeruginosa PD05141; settings: Pseudomonas aeruginosa PD05141; agar dilution, 35° C., 18 hours, nutrient agar; read-out: Minimal Inhibitory Concentration
Method: as §1

Serratia K101 = test: In vitro MIC, agar dilution, Serratia K101; settings: Serratia K101; agar dilution, 35° C., 18 hours, nutrient agar; read-out: Minimal Inhibitory Concentration
Method: as §1

[8] = test system: Enterobacter cloacae MA75-1; test: In vitro MIC, agar dilution, Enterobacter cloacae MA75-1; settings: MA751; Enterobacter cloacae MA75-1; agar dilution, 35° C., 18 hours, nutrient agar; read-out: Minimal Inhibitory Concentration
Method: as §1

[9] = test system: Staphylococcus aureus Q74-6; test: In vitro MIC, agar dilution, Staphylococcus aureus Q74-6; settings: Q746; Staphylococcus aureus Q74-6; agar dilution, 35° C., 18 hours, nutrient agar; read-out: Minimal Inhibitory Concentration
Method: as §1

Enterococcus SM77-15 = test: In vitro MIC, agar dilution, Enterococcus SM77-15; settings: SM7715; Enterococcus SM77-15; agar dilution, 35° C., 18 hours, nutrient agar; read-out: Minimal Inhibitory Concentration
Method: as §1

[10] = test system: Klebsiella pneumoniae W75-2; test: In vitro MIC, agar dilution, Klebsiella pneumoniae W75-2; settings: W752; Klebsiella pneumoniae W75-2; agar dilution, 35° C., 18 hours, nutrient agar; read-out: Minimal Inhibitory Concentration
Method: as §1

[11] = test system: Pseudomonas aeruginosa 12-4-4; test: In vitro MIC, agar dilution, Pseudomonas aeruginosa 12-4-4; settings: 1244; Pseudomonas aeruginosa 12-4-4; agar dilution, 35° C., 18 hours, nutrient agar; read-out: Minimal Inhibitory Concentration
Method: as §1

Klebsiella pneumoniae AD = test: In vitro MIC, agar dilution, Klebsiella pneumoniae AD; settings: Klebsiella pneumoniae AD; agar dilution, 35° C., 18 hours, nutrient agar; read-out: Minimal Inhibitory Concentration
Method: as §1

[12] = test system: Enterobacter aerogenes UR76-3; test: In vitro MIC, agar dilution, Enterobacter aerogenes UR76-3; settings: Klebsiella aerogenes, UR763; Enterobacter aerogenes UR76-3; agar dilution, 35° C., 18 hours, nutrient agar; read-out: Minimal Inhibitory Concentration
Method: as §1

Escherichia coli 311 = test: In vitro MIC, agar dilution, Escherichia coli 311; settings: 35° C., 18 hours, nutrient agar, read-out: Minimal Inhibitory Concentration
Method: as §1

[13] = test system: Staphylococcus aureus Q74-1; test: In vitro MIC, agar dilution, Staphylococcus aureus Q74-1; settings: Q741; Staphylococcus aureus Q74-1; agar dilution, 35° C., 18 hours, nutrient agar; read-out: Minimal Inhibitory Concentration
Method: as §1

[14] = test system: Klebsiella pneumoniae UR76-1; test: In vitro MIC, agar dilution, Klebsiella pneumoniae UR76-1; settings: UR761; Klebsiella pneumoniae UR76-1; agar dilution, 35° C., 18 hours, nutrient agar; read-out: Minimal Inhibitory Concentration
Method: as §1

Proteus morganii K72 = test: In vitro MIC, agar dilution, Proteus morganii K72; settings: Morganella morganii; Proteus morganii K72; agar dilution, 35° C., 18 hours, nutrient agar; read-out: Minimal Inhibitory Concentration
Method: as §1

Proteus rettgeri N76-1 = test: In vitro MIC, agar dilution, Proteus rettgeri N76-1; settings: Providencia rettgeri, N761; Proteus rettgeri N76-1; agar dilution, 35° C., 18 hours, nutrient agar; read-out: Minimal Inhibitory Concentration
Method: as §1

Proteus vulgaris N74-1 = test: In vitro MIC, agar dilution, Proteus vulgaris N74-1; settings: N741, 35° C., 18 hours, nutrient agar, read-out: Minimal Inhibitory Concentration
Method: as §1

[15] = Escherichia coli, ESS2231, 18 h

Row | Structure (SMILES) | MIC [2] [µg/mL] | MIC [3] [µg/mL] | MIC (Serratia marcens K77-1) [µg/mL] | MIC (Escherichia coli OSU75-1) [µg/mL] | MIC [4] [µg/mL] | MIC [5] [µg/mL] | MIC (Serratia marcens QHC77-2) [µg/mL] | MIC (Escherichia coli W75-1) [µg/mL] | MIC [6] [µg/mL] | MIC [7] [µg/mL] | MIC (Serratia K101) [µg/mL] | MIC [8] [µg/mL] | MIC [9] [µg/mL] | MIC (Enterococcus SM77-15) [µg/mL] | MIC [10] [µg/mL] | MIC [11] [µg/mL] | MIC (Klebsiella pneumoniae AD) [µg/mL] | MIC [12] [µg/mL] | MIC (Escherichia coli 311) [µg/mL] | MIC [13] [µg/mL] | also measured
1 | CCN1CCN(C(=O)NC(C(=O)NC2C(=O)N3C(C(=O)O)=C(CSc4nnc(-n5cccn5)n4N)CS[C@H]23)c2ccc(O)cc2)C(=O)C1=O (stereo partly shown) [Compound VII, 7-[2-(4-Ethyl-2,3-dioxo-1-piperazinecarboxamido)-2-(p-hydroxyphenyl)acetamido]-3-[4-amino-5-(1-pyrazolyl)-1,2,4-triazol-3-ylthiomethyl]-3-cephem-4-carboxylic acid] | 1 (≈ 1.41 µM) | 32 (≈ 45 µM) | 64 (≈ 89.9 µM) | 1 (≈ 1.41 µM) | 64 (≈ 89.9 µM) | 32 (≈ 45 µM) | 128 (≈ 180 µM) | 1 (≈ 1.41 µM) | 16 (≈ 22.5 µM) | 64 (≈ 89.9 µM) | 32 (≈ 45 µM) | > 128 | 4 (≈ 5.62 µM) | 128 (≈ 180 µM) | 2 (≈ 2.81 µM) | 16 (≈ 22.5 µM) | 1 (≈ 1.41 µM) | 0.25 (≈ 0.351 µM) | 0.5 (≈ 0.703 µM) | 2 (≈ 2.81 µM) | MIC ([1]; ESS2231, Escherichia coli ESS22-31, agar dilution, 35° C., 18 hours, nutrient agar): ≤ 0.12 µg/mL; MIC [14]: 16 µg/mL (≈ 22.5 µM); MIC (Proteus morganii K72): 32 µg/mL (≈ 45 µM); MIC (Proteus rettgeri N76-1): 8 µg/mL (≈ 11.2 µM); MIC (Proteus vulgaris N74-1): 32 µg/mL (≈ 45 µM)
2 | Cc1nnc(SCC2=C(C(=O)O)N3C(=O)[C@@H](NC(=O)Cn4cnnn4)[C@H]3SC2)s1 [Compound XII, Cefazolin, reference compound] | 1 (≈ 2.2 µM) | > 128 | > 128 | 1 (≈ 2.2 µM) | > 128 | 8 (≈ 17.6 µM) | > 128 | 1 (≈ 2.2 µM) | > 128 | > 128 | > 128 | > 128 | ≤ 0.06 | 16 (≈ 35.2 µM) | 1 (≈ 2.2 µM) | > 128 | 0.5 (≈ 1.1 µM) | 2 (≈ 4.4 µM) | 0.5 (≈ 1.1 µM) | 0.12 (≈ 0.264 µM) | MIC [1, 15]: 0.25 µg/mL (≈ 0.55 µM); MIC [14]: 64 µg/mL (≈ 141 µM); MIC (Proteus morganii K72): > 128 µg/mL; MIC (Proteus rettgeri N76-1): > 128 µg/mL; MIC (Proteus vulgaris N74-1): > 128 µg/mL
3 | N[C@@H](C(=O)NC1C(=O)N2C(C(=O)O)=C(CSc3n[nH]c(-n4cccn4)n3)CS[C@H]12)c1ccccc1.O=C(O)C(F)(F)F (stereo partly drawn) [Compound IX, 7-(D-2-Amino-2-phenylacetamido)-3-[5-(1-pyrazolyl)-1,2,4-triazol-3-ylthiomethyl]-3-cephem-4-carboxylic acid, trifluoroacetate salt] | 16 | > 128 | > 128 | 16 | > 128 | 32 | > 128 | 16 | > 128 | > 128 | > 128 | > 128 | 1 | > 128 | 32 | > 128 | 8 | 16 | 16 | 4 | MIC [1, 15]: ≤ 0.12 µg/mL; MIC [14]: > 128 µg/mL; MIC (Proteus morganii K72): > 128 µg/mL; MIC (Proteus rettgeri N76-1): > 128 µg/mL; MIC (Proteus vulgaris N74-1): > 128 µg/mL
4 | CC(=O)OCC1=C(C(=O)O)N2C(=O)[C@@H](NC(=O)[C@H](N)c3ccccc3)[C@H]2SC1 [Compound XI, Cephaloglycin, reference compound] | 1 (≈ 2.47 µM) | > 128 | > 128 | 2 (≈ 4.93 µM) | > 128 | 8 (≈ 19.7 µM) | > 128 | 2 (≈ 4.93 µM) | > 128 | > 128 | > 128 | > 128 | 0.12 (≈ 0.296 µM) | 64 (≈ 158 µM) | 2 (≈ 4.93 µM) | > 128 | 0.5 (≈ 1.23 µM) | 2 (≈ 4.93 µM) | 2 (≈ 4.93 µM) | 1 (≈ 2.47 µM) | MIC [1, 15]: 0.12 µg/mL (≈ 0.296 µM); MIC [14]: 16 µg/mL (≈ 39.5 µM); MIC (Proteus morganii K72): > 128 µg/mL; MIC (Proteus rettgeri N76-1): > 128 µg/mL; MIC (Proteus vulgaris N74-1): > 128 µg/mL
